pEC50: −log10 of the molar value. Where a SMILES comes first, the peptide text is derived from it. Bridges are numbered along the chain shown (N, C = ends). [ ]: non-standard residue; d: D form. Tyr(3-F) = N[C@@H](Cc1ccc(O)c(F)c1)C(=O)O; 1Nal = N[C@@H](Cc1cccc2ccccc12)C(=O)O; NMeA = CN[C@@H](C)C(=O)O; Nle = CCCC[C@H](N)C(=O)O
Legend:
[1] = tested on: guinea pig tracheal smooth muscle; experiment: Tracheal relaxant activity of VIP analogs on isolated guinea pig tracheal rings; type: cell-based; conditions: cumulative concentration response, relaxation as % of maximum response to VIP (10^-6 M=100%), three tissues pooled, linear regression
Method in brief: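 Male guinea pig tracheal rings under 1.5 g resting tension in Krebs at 37° C, 95% O2/5% CO2, isometric tension. Cumulative concentration-response curves; relaxation as % of response to 10^-6 M VIP added at end; three tissues pooled, EC50 by linear regression.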

[2] = tested on: guinea pigs; experiment: In vivo bronchodilator activity by tracheal instillation against histamine challenge; design: species or system guinea pig; conditions: anesthetized male guinea pigs, inhibition of histamine (i.v.)-induced rise in tracheal pressure
Description: The in vivo bronchodilator activity of VIP and VIP analogs in guinea pigs was assessed by the tracheal instillation route of administration. This technique utilized male guinea pigs (Hartley strain, Charles River) weighing 400-600 g. Animals were anesthetized with urethane (2 g/kg) intraperitoneally and a polyethylene cannula was inserted into the jugular vein for intraveneous drug administration.
The animals were tracheotomized and dosing solutions of distilled water or test compound dissolved in distilled water were administered into the trachea, approximately three-quarters the distance to the carina with a pipette. The concentration of the dosing solution was adjusted to deliver a constant volume of […]. The animals were placed supine for one minute to aid drug delivery to the lung. One minute later, spontaneous breathing was arrested with succinylcholine chloride (1.2 mg/kg) administered intraveneously, and the animals were ventilated with a HARVARD Model 680 small animal respirator set at 40 breaths/min and 4.0 cm^3 stroke volume. The animals were challenged with a maximal constrictory dose of histamine ([…], i.v.) and tracheal pressure (cm of water) was recorded from a STATHAM pressure transducer (P 32 AA).
The change in tracheal pressure was averaged for at least 3 control and 3 drug-treated animals and percent inhibition was calculated. The relative potency of compounds administered by the instillation route was determined by administering various doses of test compound and calculating the median effective dose (ED50 value). The ED50 was determined from log dose-response curves generated by at least 3 doses that caused inhibitory effects between 10% and 90%. The correlation coefficients for the regression line of each compound was always greater than 0.95.
For determination of the time course of inhibition for various compounds, the time between administration of compound and challenge with histamine was varied. The time course of activity was calculated as the time when inhibition decreased to 40%.
The results summarized in Table II show the in vivo bronchodilator activity of the VIP analogs in comparison to native VIP.

In the case of CCCC[C@H](NC(=O)[C@H](CCC(N)=O)NC(=O)[C@H](CCCCN)NC(=O)[C@H](CCCNC(=N)N)NC(=O)[C@H](CC(C)C)NC(=O)[C@H](CCCCN)NC(=O)[C@@H](NC(=O)[C@H](Cc1ccc(O)cc1)NC(=O)[C@H](CC(N)=O)NC(=O)[C@H](CCC(=O)O)NC(=O)[C@@H](NC(=O)[C@H](Cc1cccc2ccccc12)NC(=O)[C@@H](NC(=O)[C@H](C)NC(=O)[C@H](CC(=O)O)NC(=O)[C@H](CO)NC(=O)[C@H](Cc1c[nH]cn1)NC(C)=O)C(C)C)[C@@H](C)O)[C@@H](C)O)C(=O)N[C@@H](C)C(=O)N[C@@H](C)C(=O)N[C@@H](CCCCN)C(=O)N[C@H]1CCCCNC(=O)C[C@@H](C(=O)N[C@@H](CC(C)C)C(=O)N[C@@H](CCCCN)C(=O)N[C@@H](CCCCN)C(N)=O)NC(=O)[C@H](CC(N)=O)NC(=O)[C@H](CC(C)C)NC(=O)[C@H](Cc2ccc(O)cc2)NC1=O [SEQ ID NO:46, Ac-[1-Nal^6,Glu^8,Lys^12,Nle^17,Ala^19,Asp^25,Leu^26,Lys^27,28]-VIP cyclo (Lys^21 →Asp^25)] (Ac-HSDAV[1Nal]TENYTKLRKQ[Nle]AAKKYLNDLKK-NH2; lactam 21-25), the pEC50 [1] was 9.59 and the “Bronchodilator activity of VIP analogs in guinea pigs, ED50” value (from here on “Bronchodilator activity of VIP analogs”) [2] was 0.036 μg.

For CCCC[C@H](NC(=O)[C@H](CCC(N)=O)NC(=O)[C@H](CCCCN)NC(=O)[C@H](CCCNC(=N)N)NC(=O)[C@H](CC(C)C)NC(=O)[C@H](CCCCN)NC(=O)[C@@H](NC(=O)[C@H](Cc1ccc(O)cc1)NC(=O)[C@H](CC(N)=O)NC(=O)[C@H](CCC(=O)O)NC(=O)[C@@H](NC(=O)[C@H](Cc1ccccc1)NC(=O)[C@@H](NC(=O)[C@H](C)NC(=O)[C@H](CC(=O)O)NC(=O)[C@H](CO)NC(=O)[C@H](Cc1c[nH]cn1)NC(C)=O)C(C)C)[C@@H](C)O)[C@@H](C)O)C(=O)N[C@@H](C)C(=O)N[C@H](C(=O)N[C@@H](CCCCN)C(=O)N[C@H]1CCCCNC(=O)C[C@@H](C(=O)N[C@@H](CC(C)C)C(=O)N[C@@H](CCCCN)C(=O)N[C@@H](CCCCN)C(=O)NCC(=O)NCC(=O)N[C@H](C(N)=O)[C@@H](C)O)NC(=O)[C@H](CC(N)=O)NC(=O)[C@H](CC(C)C)NC(=O)[C@H](Cc2ccc(O)cc2)NC1=O)C(C)C [SEQ ID NO:68, Ac-[Glu^8,Lys^12,Nle^17,Asp^25,Leu^26,Lys^27,28,Gly^29,30,Thr^31]-VIP cyclo (Lys^21 →Asp^25)] (Ac-HSDAVFTENYTKLRKQ[Nle]AVKKYLNDLKKGGT-NH2; lactam 21-25), the pEC50 [1] was 9.37 and the “Bronchodilator activity of VIP analogs” value [2] was 0.04 μg.

With CCCC[C@H](NC(=O)[C@H](CCC(N)=O)NC(=O)[C@H](CCCCN)NC(=O)[C@H](CCCNC(=N)N)NC(=O)[C@H](CC(C)C)NC(=O)[C@H](CCCCN)NC(=O)[C@@H](NC(=O)[C@H](Cc1ccc(O)cc1)NC(=O)[C@H](CC(N)=O)NC(=O)[C@H](CC(=O)O)NC(=O)[C@@H](NC(=O)[C@H](Cc1ccccc1)NC(=O)[C@@H](NC(=O)[C@H](C)NC(=O)[C@H](CC(=O)O)NC(=O)[C@H](CO)NC(=O)[C@H](C)N(C)C(C)=O)C(C)C)[C@@H](C)O)[C@@H](C)O)C(=O)N[C@@H](C)C(=O)N[C@@H](C)C(=O)N[C@@H](CCCCN)C(=O)N[C@H]1CCCCNC(=O)C[C@@H](C(=O)N[C@H](C(=O)N[C@@H](CC(C)C)C(=O)N[C@H](C(N)=O)[C@@H](C)O)C(C)C)NC(=O)[C@H](CC(N)=O)NC(=O)[C@H](CC(C)C)NC(=O)[C@H](Cc2ccc(O)cc2)NC1=O [SEQ ID NO:34, Ac-[N-Me-Ala^1,Lys^12,Nle^17,Ala^19,Asp^25,Val^26,Thr^28]-VIP cyclo (Lys^21 →Asp^25)] (Ac-[NMeA]SDAVFTDNYTKLRKQ[Nle]AAKKYLNDVLT-NH2; lactam 21-25) the pEC50 [1] was 9.15 and the “Bronchodilator activity of VIP analogs” value [2] was 1.0 μg.

With CCCC[C@H](NC(=O)[C@H](CCC(N)=O)NC(=O)[C@H](CCCCN)NC(=O)[C@H](CCCNC(=N)N)NC(=O)[C@H](CC(C)C)NC(=O)[C@H](CCCCN)NC(=O)[C@@H](NC(=O)[C@H](Cc1ccc(O)cc1)NC(=O)[C@H](CC(N)=O)NC(=O)[C@H](CCC(=O)O)NC(=O)[C@@H](NC(=O)[C@H](Cc1ccccc1)NC(=O)[C@@H](NC(=O)[C@H](C)NC(=O)[C@H](CC(=O)O)NC(=O)[C@H](CO)NC(=O)[C@H](Cc1c[nH]cn1)NC(C)=O)C(C)C)[C@@H](C)O)[C@@H](C)O)C(=O)N[C@@H](C)C(=O)N[C@@H](C)C(=O)N[C@@H](CCCCN)C(=O)N[C@H]1CCCCNC(=O)C[C@@H](C(=O)N[C@@H](CC(C)C)C(=O)N[C@@H](CCCCN)C(=O)N[C@@H](CCCCN)C(=O)NCC(=O)NCC(=O)N[C@H](C(N)=O)[C@@H](C)O)NC(=O)[C@H](CC(N)=O)NC(=O)[C@H](CC(C)C)NC(=O)[C@H](Cc2ccc(O)cc2)NC1=O [SEQ ID NO:52, Ac-[Glu^8,Lys^12,Nle^17,Ala^19,Asp^25,Leu^26,Lys^27,28,Gly^29,30,Thr^31]-VIP cyclo (Lys^21 →Asp^25)] (Ac-HSDAVFTENYTKLRKQ[Nle]AAKKYLNDLKKGGT-NH2; lactam 21-25) the pEC50 [1] was 9.46 and the “Bronchodilator activity of VIP analogs” value [2] was 0.1 μg.

CCCC[C@H](NC(=O)[C@H](CCC(N)=O)NC(=O)[C@H](CCCCN)NC(=O)[C@H](CCCNC(=N)N)NC(=O)[C@H](CC(C)C)NC(=O)[C@H](CCCCN)NC(=O)[C@@H](NC(=O)[C@H](Cc1ccc(O)cc1)NC(=O)[C@H](CC(N)=O)NC(=O)[C@H](CCC(=O)O)NC(=O)[C@@H](NC(=O)[C@H](Cc1ccccc1)NC(=O)[C@@H](NC(=O)[C@H](C)NC(=O)[C@H](CC(=O)O)NC(=O)[C@H](C)NC(=O)[C@H](Cc1c[nH]cn1)NC(C)=O)C(C)C)[C@@H](C)O)[C@@H](C)O)C(=O)N[C@@H](C)C(=O)N[C@@H](C)C(=O)N[C@@H](CCCCN)C(=O)N[C@H]1CCCCNC(=O)C[C@@H](C(=O)N[C@@H](CC(C)C)C(=O)N[C@@H](CCCCN)C(=O)N[C@@H](CCCCN)C(N)=O)NC(=O)[C@H](CC(N)=O)NC(=O)[C@H](CC(C)C)NC(=O)[C@H](Cc2ccc(O)cc2)NC1=O [SEQ ID NO:53, Ac-[Ala^2,Glu^8,Lys^12,Nle^17,Ala^19,Asp^25,Leu^26,Lys^27,28]-VIP cyclo (Lys^21 →Asp^25)] (Ac-HADAVFTENYTKLRKQ[Nle]AAKKYLNDLKK-NH2; lactam 21-25) was tested, and the pEC50 [1] was 9.11 and the “Bronchodilator activity of VIP analogs” value [2] was 0.14 μg.

For CCCC[C@H](NC(=O)[C@H](CCC(N)=O)NC(=O)[C@H](CCCCN)NC(=O)[C@H](CCCNC(=N)N)NC(=O)[C@H](CC(C)C)NC(=O)[C@H](CCCCN)NC(=O)[C@@H](NC(=O)[C@H](Cc1ccc(O)cc1)NC(=O)[C@H](CC(N)=O)NC(=O)[C@H](CCC(=O)O)NC(=O)[C@@H](NC(=O)[C@H](Cc1ccccc1)NC(=O)[C@@H](NC(=O)[C@H](C)NC(=O)[C@H](CC(=O)O)NC(=O)[C@H](CO)NC(=O)[C@H](Cc1c[nH]cn1)NC(C)=O)C(C)C)[C@@H](C)O)[C@@H](C)O)C(=O)N[C@@H](C)C(=O)N[C@@H](C)C(=O)N[C@@H](CCCCN)C(=O)N[C@H]1CCCCNC(=O)C[C@@H](C(=O)N[C@@H](CC(C)C)C(=O)N[C@@H](CCCCN)C(=O)N[C@@H](CCCCN)C(N)=O)NC(=O)[C@H](CC(N)=O)NC(=O)[C@H](CC(C)C)NC(=O)[C@H](Cc2ccc(O)c(F)c2)NC1=O [SEQ ID NO:58, Ac-[Glu^8,Lys^12,Nle^17,Ala^19,m-F-L-Tyr^22,Asp^25,Leu^26,Lys^27,28]-VIP cyclo (Lys^21 →Asp^25)] (Ac-HSDAVFTENYTKLRKQ[Nle]AAKK[Tyr(3-F)]LNDLKK-NH2; lactam 21-25), the pEC50 [1] was 9.51 and the “Bronchodilator activity of VIP analogs” value [2] was 0.03 μg.

With CC[C@H](C)[C@H](NC(=O)[C@H](CO)NC(=O)[C@H](CC(N)=O)NC(=O)[C@H](CC(C)C)NC(=O)[C@H](Cc1ccc(O)cc1)NC(=O)[C@H](CCCCN)NC(=O)[C@H](CCCCN)NC(=O)[C@@H](NC(=O)[C@H](C)NC(=O)[C@H](CCSC)NC(=O)[C@H](CCC(N)=O)NC(=O)[C@H](CCCCN)NC(=O)[C@H](CCCNC(=N)N)NC(=O)[C@H](CC(C)C)NC(=O)[C@H](CCCNC(=N)N)NC(=O)[C@@H](NC(=O)[C@H](Cc1ccc(O)cc1)NC(=O)[C@H](CC(N)=O)NC(=O)[C@H](CC(=O)O)NC(=O)[C@@H](NC(=O)[C@H](Cc1ccccc1)NC(=O)[C@@H](NC(=O)[C@H](C)NC(=O)[C@H](CC(=O)O)NC(=O)[C@H](CO)NC(=O)[C@@H](N)Cc1c[nH]cn1)C(C)C)[C@@H](C)O)[C@@H](C)O)C(C)C)C(=O)N[C@@H](CC(C)C)C(=O)N[C@@H](CC(N)=O)C(N)=O [VIP, Vasoactive intestinal peptide, reference compound] the pEC50 [1] was 8.00 and the “Bronchodilator activity of VIP analogs” value [2] was 7.3 μg.

From US5677419A, “Cyclic vasoactive peptide analogs” (Hoffmann-La Roche Inc., priority 1994, dated 1997)
